Laboratory results as given in patent US20260069584A1, “METHODS OF TREATING CHRONIC MYELOID LEUKEMIA USING THE TYROSINE KINASE INHIBITOR VODOBATINIB” (Sun Pharma Advanced Research Company Ltd., priority 2022, published 2026).
“And” between values parts separate entries of the source, which are not always exact repeats. Identical values can stand only once.

Legend:
[1] = test system: Ph+ CML (CP CML, AP CML and BP CML) and Ph+ ALL; assay: Parts B and C pooled (n=59): disease response; type: in vivo, human
Protocol: Additionally, 71.2% of all the subjects were refractory and/or intolerant to ≥3 TKIs. The MCyR and MMR in subjects with CP CML were 63% and 34.8%, respectively, and those with more aggressive disease viz. AP CML, BP CML and Ph+ ALL were 53.8% and 30.8%, respectively.
The MTD of the compound of Formula I was 204 mg while RP2D was 174 mg QD. Anti-leukemic activity in the form of hematological, cytogenetic and molecular responses was reported across Parts B and C (n=59). Major cytogenetic responses were reported in 61% of subjects while major molecular responses were reported in 33.9% of subjects across doses. […] There is limited evidence of activity in the CML literature in such a heavily pre-treated population.

clinical = settings: human, in vivo, po
Protocol: A±5 minutes window permitted till 4 hours PK sample collection. A±10 minutes window permitted for subsequent PK sample collection. Days 3, 8, 15, and 22 of Cycle 1:30 (±10) minutes Predose only. […] A #5 minutes window permitted till 4 hours PK sample collection. A #10 minutes window permitted for subsequent PK sample collection. Days 8, 15, and 22 of Cycle 2:30 (±10) minutes Predose only. Cycle 3 onwards: Predose samples on Day 1.
Pharmacokinetic analysis was performed using non-compartmental analysis. The actual elapsed time from dose was used in the final PK parameter calculations. Plasma concentrations and PK parameters for the compound of Formula I were listed and summarized by dose cohort using descriptive statistics (n, mean, standard deviation, minimum, median, and maximum). Geometric mean and geometric coefficient of variation were calculated for PK parameters. Additionally, mean concentration profiles by dose cohort and cycle were illustrated. Dose proportionality of Cmax and AUC(0-24) was assessed graphically for Cycle 1 and Cycle 2. Dose proportionality was statistically evaluated using the power model approach, whenever the number of patients was at least 3 for a given cohort. Time to steady-state (Ctrough) was evaluated graphically. Differences among dose levels in CL/F and V/F, and dose-normalized Cmax and AUC(0-24) were explored using an analysis of variance.
The PK parameters for the study were summarized by treatment using descriptive (N, n, mean, standard deviation [SD], coefficient of variation [CV] % minimum, median, maximum, geometric mean and CV %) statistics, except for Tmax. For Tmax, the number of subjects, minimum, median, and maximum are reported.

## Cc1ccc(C(=O)NNC(=O)c2c(C)cccc2Cl)cc1C#Cc1cnc2ccccc2c1 [compound of Formula I, N′-(2-chloro-6-methylbenzoyl)-4-methyl-3-[2-(3-quinolyl)ethynyl]-benzohydrazide]
[1]; 174 mg initial dose, 2 subjects
  major molecular response deepened to complete molecular response: 9.1%
[1]; 174 mg initial dose, 20 out of 24 subjects
  complete hematological response: 83.3%
[1]; 29 subjects with prior ponatinib (n=11 of 29)
  MMR: 37.93% and 37.9%
[1]; 29 subjects with prior ponatinib (n=15 of 29)
  MCyR: 51.7%
[1]; AP CML, BP CML and Ph+ ALL
  MCyR: 53.8%
  MMR: 30.8%
[1]; RP2D of 174 mg, independent of prior ponatinib exposure
  major cytogenetic response: 50%
[1]; all subjects, across doses
  major cytogenetic response (MCyR): 61%
  major molecular response (MMR): 33.9%
[1]; subjects with CP CML
  MCyR: 63%
  MMR: 34.8%
clinical
  Tmax: 1.5 to 2.5 h
clinical; 204 mg
  AUC(0-t): 27500 ng·h/mL
  Cmax: 3310 ng/mL
